One may read the IC50 as the concentration that gives 50% inhibition. By IC90 is commonly meant the concentration needed for an effect of 90%.

This passage reports IC50 and IC90 results from ChEMBL document CHEMBL4483862, “Open-source discovery of chemical leads for next-generation chemoprotective antimalarials” (2018).

The experiment deals with Plasmodium berghei. Nature of the experiment: Luciferase/luciferin-expressing antifolate-resistant parasites were used to infect a culture of HepG2 cells that were pre-incubated with compounds. Infected hepatocytes emit light due to the luciferase reaction. Assay results are presented as the percent inhibition of light emission compared to control. […]. Format: functional. Conditions: sporozoite; for IC90: read-out: LUCIFERASE INFECTION ASSAY - IC90.

Where [1] appears, read: read-out: LUCIFERASE INFECTION ASSAY - IC50.

Turning to `COc1ccc(-c2cnc3ccc(-c4cccc(Cl)c4)nn23)cc1OC`, the IC90 worked out at 5.25 µM. Also, the IC50 (FFLUC_HILL_SLOPE 18.1, FFLUC_R_SQUARED 0.385, HEPG2TOX_HILL_SLOPE 1.42, HEPG2TOX_R_SQUARED 0.94, PBLUC_HILL_SLOPE 1.13, PBLUC_R_SQUARED 0.747, read-out: LUCIFERASE INFECTION ASSAY - IC50) was determined as 0.748 µM.

Regarding `Cc1ccc(C)c(OCCCN2C(=O)NC(Cc3c[nH]c4ccccc34)C2=O)c1` (stereo unspecified), the IC90 was greater than 10 µM. Moreover, under setting [1], the IC50 is greater than 10 µM.

Consider `COc1ccc(NC(=O)c2cccc(Cl)c2)cc1OCc1cccnc1`, for which the IC90 is greater than 10 µM. Besides, the IC50 under setting [1] was greater than 10 µM.

In the case of `CSC1=C(C#N)C(=O)NC(c2c(Cl)cccc2Cl)S1` (stereo unspecified), the IC90 is greater than 9.96 µM. Also, the IC50 (FFLUC_HILL_SLOPE 9.34, FFLUC_R_SQUARED 0.0497, read-out: LUCIFERASE INFECTION ASSAY - IC50) is greater than 9.96 µM.

For `Cn1c(SCC(=O)c2ccc(Cl)cc2)nnc1-c1ccc(C(C)(C)C)cc1`, the IC90 is greater than 8.25 µM. For the setting “PBLUC_HILL_SLOPE 11.7, PBLUC_R_SQUARED 0.0355, read-out: LUCIFERASE INFECTION ASSAY - IC50”, the IC50 is greater than 8.25 µM.

With `Cc1ccc(C(=O)Cn2c(=O)n(C3CCCCC3)c(=O)c3ccccc32)cc1`, the IC90 is greater than 8.77 µM. The IC50 (FFLUC_HILL_SLOPE 15.7, FFLUC_R_SQUARED 0.382, PBLUC_HILL_SLOPE 31.1, PBLUC_R_SQUARED 0.0716, read-out: LUCIFERASE INFECTION ASSAY - IC50) was greater than 8.77 µM.

`Fc1cccc(-c2nc3ccnc(Nc4ccccc4)c3[nH]2)c1`: the IC90 was greater than 10 µM. Further, the IC50 (HEPG2TOX_HILL_SLOPE 0.405, HEPG2TOX_R_SQUARED 0.516, PBLUC_HILL_SLOPE 2.81, PBLUC_R_SQUARED 0.545, read-out: LUCIFERASE INFECTION ASSAY - IC50) worked out at 5.99 µM.

On to `CCn1c(SCc2csc(N(C(C)=O)c3cccc(C)c3)n2)nc2ccccc2c1=O`, for which the IC90 was greater than 10 µM. Besides, the IC50 (PBLUC_HILL_SLOPE 13.6, PBLUC_R_SQUARED 0.153, read-out: LUCIFERASE INFECTION ASSAY - IC50) is greater than 10 µM.

With `NC(c1csc(NC(=O)Nc2cccc3ccccc23)n1)C1CCCCC1` (stereo unspecified), the IC90 is greater than 8.67 µM. In addition, the IC50 under setting [1] is greater than 8.67 µM.

For `CC(OC(=O)c1cccc(-n2cccc2)c1)C(=O)N1CCCC1` (stereo unspecified), the IC90 stood at 8.03 µM. For the same compound, the IC50 (PBLUC_HILL_SLOPE 4.03, PBLUC_R_SQUARED 0.34, read-out: LUCIFERASE INFECTION ASSAY - IC50) turned out to be 4.65 µM.

Consider `FC(F)(F)c1cnc(N/N=C/c2cn(-c3ccccc3)nc2-c2cc3ccccc3o2)c(Cl)c1`, for which the IC90 is greater than 10 µM. Besides, the IC50 (HEPG2TOX_HILL_SLOPE 5.1, HEPG2TOX_R_SQUARED 0.771, read-out: LUCIFERASE INFECTION ASSAY - IC50) was greater than 10 µM.

Take `C/N=c1\scc(-c2ccccc2OC)n1/N=C/c1ccc[nH]1`: the IC90 amounted to 0.0612 µM. In addition, the IC50 (PBLUC_HILL_SLOPE 6.06, PBLUC_R_SQUARED 0.259, read-out: LUCIFERASE INFECTION ASSAY - IC50) is 0.0426 µM.

For `O=C1C=CC(=O)N1c1ccccc1OC(F)(F)F`, the IC90 is greater than 12.8 µM. The IC50 (FFLUC_HILL_SLOPE 21.4, FFLUC_R_SQUARED 0.595, PBLUC_HILL_SLOPE 3.16, PBLUC_R_SQUARED 0.111, read-out: LUCIFERASE INFECTION ASSAY - IC50) was 8.21 µM.

Turning to `O=C(NC1CC1)c1csc(C(O)c2cccc(C(F)(F)F)c2)n1` (stereo unspecified), the IC90 came to 1.14 µM. For the same compound, the IC50 (HEPG2TOX_HILL_SLOPE 2.89, HEPG2TOX_R_SQUARED 0.879, PBLUC_HILL_SLOPE 2.14, PBLUC_R_SQUARED 0.663, read-out: LUCIFERASE INFECTION ASSAY - IC50) amounted to 0.408 µM.

`COc1ccc(-c2nc(C(=O)NC3CCCC3)cc3c2[nH]c2ccccc23)cc1`: the IC90 is greater than 8.56 µM. In addition, under setting [1], the IC50 amounted to 8.53 µM.

Consider `COc1ccccc1N1C(C)=CC(=C(C#N)c2nc3ccccc3s2)C=C1C`, for which the IC90 is greater than 10 µM. Also, the IC50 (FFLUC_HILL_SLOPE 10.1, FFLUC_R_SQUARED 0.663, HEPG2TOX_HILL_SLOPE 9.46, HEPG2TOX_R_SQUARED 0.504, PBLUC_HILL_SLOPE 1.94, PBLUC_R_SQUARED 0.582, read-out: LUCIFERASE INFECTION ASSAY - IC50) came out at 3.83 µM.

For `Cc1cc(C)c(NC(=O)CN(C)C2CC(=O)N(C)C2=O)c(C)c1` (stereo unspecified), the IC90 was greater than 10 µM. Besides, the half-maximal inhibitory concentration (IC50) (HEPG2TOX_HILL_SLOPE 0.116, HEPG2TOX_R_SQUARED 0.0867, read-out: LUCIFERASE INFECTION ASSAY - IC50) was greater than 10 µM.

In the case of `CCOC(=O)c1c(-c2ccc(Cl)cc2)csc1Nc1nc(S(=O)(=O)c2ccc(Cl)cc2)c(Cl)s1`, the IC90 is greater than 10 µM. In addition, under setting [1], the IC50 was 5.47 µM.

With `FC(F)(F)c1nc2ccccc2nc1N/N=C/C=C/c1ccccc1`, the IC90 is greater than 9.64 µM. The IC50 under setting [1] was greater than 9.64 µM.

Turning to `CCOC(=O)c1c(C)nn(-c2ccc(N3C(=O)C=CC3=O)cc2)c1C`, the IC90 was greater than 9.72 µM. Further, the IC50 (PBLUC_HILL_SLOPE 1.49, PBLUC_R_SQUARED 0.186, read-out: LUCIFERASE INFECTION ASSAY - IC50) worked out at 6.99 µM.

With `CCOC(=O)c1ccc(N2C(=O)c3ccccc3C(C=NNC(=O)c3ccoc3C)C2=O)c(Cl)c1` (stereo unspecified), the IC90 was greater than 10 µM. In addition, the IC50 (HEPG2TOX_HILL_SLOPE 6.47, HEPG2TOX_R_SQUARED 0.622, PBLUC_HILL_SLOPE 28.4, PBLUC_R_SQUARED 0.423, read-out: LUCIFERASE INFECTION ASSAY - IC50) worked out at 9.76 µM.

Turning to `CCOC(=O)c1sc(S(=O)(=O)Cc2ccccc2)c2c1CC(C)(C)CC2=O`, the concentration for an effect of 90% (IC90) is greater than 8.12 µM. Under setting [1], the IC50 is greater than 8.12 µM.

Consider `Cc1cccc(-n2c(SC(C)C(N)=O)nc3ccccc3c2=O)n1` (stereo unspecified), for which the IC90 was greater than 10 µM. Under setting [1], the IC50 was greater than 10 µM.

On to `O=C(Oc1ccc(/C=N/Nc2nc3ccccc3s2)c(OC(=O)c2ccco2)c1)c1ccco1`, for which the IC90 is greater than 10 µM. Moreover, the IC50 (PBLUC_HILL_SLOPE 13.1, PBLUC_R_SQUARED 0.411, read-out: LUCIFERASE INFECTION ASSAY - IC50) is 9.2 µM.

On to `COc1ccc(C2Sc3ccccc3N=C3C2=C(O)c2ccccc23)cc1` (stereo unspecified), for which the IC90 stood at 1.84 µM. The IC50 (PBLUC_HILL_SLOPE 1.48, PBLUC_R_SQUARED 0.746, read-out: LUCIFERASE INFECTION ASSAY - IC50) amounted to 0.42 µM.

With `OCc1ccccc1-c1cn2c(-c3ccc(Cl)cc3)cnc2cn1`, the IC90 turned out to be 3.81 µM. Where the note is “PBLUC_HILL_SLOPE 13.7, PBLUC_R_SQUARED 0.696, read-out: LUCIFERASE INFECTION ASSAY - IC50”, the IC50 is 3.25 µM.

`CCOc1ccccc1NC(=O)c1nc(-c2ccccc2)n(-c2ccccc2)n1`: the IC90 is 3.4 µM. Besides, where the note is “PBLUC_HILL_SLOPE 61.7, PBLUC_R_SQUARED 0.143, read-out: LUCIFERASE INFECTION ASSAY - IC50”, the IC50 worked out at 3.28 µM.

With `COc1ccccc1-c1cc(C(=O)NCC(C)c2ccccc2)no1` (stereo unspecified), the IC90 was greater than 10 µM. In addition, the IC50 (PBLUC_HILL_SLOPE 1.24, PBLUC_R_SQUARED 0.652, read-out: LUCIFERASE INFECTION ASSAY - IC50) was 3.42 µM.

In the case of `O=C(CC1(O)C(=O)Nc2ccccc21)c1ccc(OCC(=O)N2CCOCC2)cc1` (stereo unspecified), the IC90 is greater than 10 µM. Under setting [1], the IC50 is greater than 10 µM.

As to `CCC(C)NC(=O)c1c(NC(=O)c2ccccc2Cl)nc2ccc(C)cn12` (stereo unspecified), the IC90 was determined as 3.78 µM. In addition, the IC50 (HEPG2TOX_HILL_SLOPE 2.82, HEPG2TOX_R_SQUARED 0.923, PBLUC_HILL_SLOPE 8.99, PBLUC_R_SQUARED 0.855, read-out: LUCIFERASE INFECTION ASSAY - IC50) amounted to 2.96 µM.

As to `Cn1c(C=C2NC(c3cnccn3)=NO2)n[nH]c1=S`, the IC90 is greater than 12 µM. Further, the IC50 (PBLUC_HILL_SLOPE 0.666, PBLUC_R_SQUARED 0.147, read-out: LUCIFERASE INFECTION ASSAY - IC50) is greater than 12 µM.

For `OCCCNc1nn2c(-c3ccccc3Cl)cnc2s1`, the IC90 is greater than 10.7 µM. Moreover, the IC50 under setting [1] was greater than 10.7 µM.

As to `Cc1cc(C(=O)Nc2nc3ccccc3[nH]2)c(C)s1`, the IC90 was greater than 10 µM. Moreover, the IC50 under setting [1] was greater than 10 µM.

Regarding `COc1ccc(S(=O)(=O)N2[C@@H]3CC[C@@H](C3)[C@H]2c2nc3c(OCC4CCOCC4)cccc3[nH]2)c(OC)c1`, the IC90 was greater than 10 µM. Besides, where the note is “PBLUC_HILL_SLOPE 2.43, PBLUC_R_SQUARED 0.162, read-out: LUCIFERASE INFECTION ASSAY - IC50”, the IC50 turned out to be 8.16 µM.

Regarding `Clc1sc2ccccc2c1-c1nnc(SCc2nc3ccccn3c2Br)n1-c1ccccc1`, the IC90 was greater than 10 µM. In addition, the IC50 (PBLUC_HILL_SLOPE 2.01, PBLUC_R_SQUARED 0.722, read-out: LUCIFERASE INFECTION ASSAY - IC50) was determined as 6.1 µM.

As for `COc1ccc(-c2csc(N/C=C3/C(=O)NC(=O)c4ccccc43)n2)cc1OC`, the IC90 came out at 8.15 µM. Besides, the IC50 (HEPG2TOX_HILL_SLOPE 3.11, HEPG2TOX_R_SQUARED 0.952, PBLUC_HILL_SLOPE 3, PBLUC_R_SQUARED 0.801, read-out: LUCIFERASE INFECTION ASSAY - IC50) amounted to 3.92 µM.

As for `C/N=c1\scc(-c2ccc(OC(F)F)cc2)n1/N=C/c1ccccc1[N+](=O)[O-]`, the IC90 is greater than 10 µM. Further, the IC50 under setting [1] was greater than 10 µM.

On to `FC(F)(F)c1cc(Nc2nc(C(F)(F)F)cs2)cc(C(F)(F)F)c1`, for which the IC90 was determined as 3.63 µM. Moreover, the IC50 (HEPG2TOX_HILL_SLOPE 11.5, HEPG2TOX_R_SQUARED 0.969, PBLUC_HILL_SLOPE 12.1, PBLUC_R_SQUARED 0.577, read-out: LUCIFERASE INFECTION ASSAY - IC50) came out at 3.03 µM.
